{"source": "patent US11241426B2", "about": "“Aqueous composition for ophthalmic or nasal administration” (NITTO MEDIC CO., LTD., priority 2017, dated 2022)", "origin": "cited, not measured here", "biological_target": "human H1 receptor (Homo sapiens, UniProt P35367)", "sequence (P35367 whole entry)": "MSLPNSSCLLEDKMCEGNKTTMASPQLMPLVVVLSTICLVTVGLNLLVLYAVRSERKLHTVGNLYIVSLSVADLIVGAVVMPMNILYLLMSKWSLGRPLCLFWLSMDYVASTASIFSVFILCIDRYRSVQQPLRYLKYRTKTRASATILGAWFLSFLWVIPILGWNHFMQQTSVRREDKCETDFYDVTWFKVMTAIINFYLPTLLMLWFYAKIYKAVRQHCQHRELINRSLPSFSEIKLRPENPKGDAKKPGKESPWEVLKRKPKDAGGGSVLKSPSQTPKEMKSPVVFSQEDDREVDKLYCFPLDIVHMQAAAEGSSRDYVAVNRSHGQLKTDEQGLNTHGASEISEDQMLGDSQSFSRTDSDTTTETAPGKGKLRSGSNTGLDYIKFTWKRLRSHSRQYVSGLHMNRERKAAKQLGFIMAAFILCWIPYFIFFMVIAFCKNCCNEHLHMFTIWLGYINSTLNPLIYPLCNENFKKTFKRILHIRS"}
{"molecule": "O=C(O)COCCN1CCN([C@H](c2ccccc2)c2ccc(Cl)cc2)CC1", "note": "[Levocetirizine]", "values": [{"measurement": "affinity for the human H1 receptor, fold higher than that of cetirizine", "setting": "relative to cetirizine", "result": "about 2 fold"}, {"measurement": "affinity for the human H1 receptor, fold higher than that of the S-enantiomer, dextrocetirizine", "setting": "relative to dextrocetirizine", "result": "about 30 fold"}]}
